# Data published in patent US11872210B2, “Thiol isomerases inhibitors and use thereof” (WESTERN NEW ENGLAND UNIVERSITY, priority 2017, dated 2024).
# Assays:
# Tail bleeding assay = assay type: in vivo, C57/BL6 mice; settings: infused to circulating concentration of 20 μM, 5 minutes prior to tail biopsy
# Procedure: The effects of zafirlukast on thrombus formation in mice was determined following laser injury of cremaster muscle arterioles, and observed by intravital microscopy. Male C57/BL6 mouse platelets were labelled with DyLight 649-conjugated anti-GPIb antibody (0.2 μg/g body weight) and either vehicle or zafirlukast (ZFL) infused (at a volume required to achieve a circulating concentration of 20 μM). Following laser injury, images were recorded for 5 minutes. […] FIG. 6 illustrates the effects of ZFL on bleeding were determined by tail bleeding assay. Vehicle or ZFL (at a volume required to achieve a circulating concentration of 20 μM) were infused into the femoral veins of C57/BL6 mice, 5 minutes prior to tail biopsy. 0.5 cm of tail tip was excised and blood collected in phosphate-buffered saline (PBS), and time to cessation of bleeding was recorded. […] Graphs represent mean±SEM, n=10 per treatment, data analyzed by Student's T test, ***p<0.005.
# platelets = test: Platelet spreading upon collagen; assay type: cell-based; settings: 0.1 μM-10 μM
# Procedure: Platelet responses in the presence of zafirlukast, (0.1 μM-10 μM) were tested in a range of platelet functional assays including aggregation, granule secretion and spreading studies.
# PDI = biological target: T1, PDI (Homo sapiens, UniProt P07237); test: Insulin-based turbidometric assay of thiol isomerase inhibitory activity (PDI); assay type: biochemical; settings: insulin turbidity assay, 6 point dose curve
# T1 construct: purchased AbCam (Cambridge Mass.)
# Excerpt: Recombinant thiol isomerases were purchased from AbCam (Cambridge Mass.), recombinant insulin (bovine), bacitracin, dithiothreitol (DTT) buffers and all other chemicals were purchased from Sigma Aldrich (St. Louis, Mo.; while 384 well clear bottom plates were purchased from Corning (Corning, N.Y.).
# The catalytic reduction of insulin by thiol isomerases in the presence of DTT results in aggregation of insulin chains. The turbidity of insulin aggregation can be monitored spectrophotometrically at an optical density (OD) at 650 nm. This approach has been used by multiple groups to identify thiol isomerase inhibitors in either a kinetic or endpoint fashion. A final concentration of either 10 μg/mL PDI, 30 μg/mL ERp5, 10 μg/mL ERp72 or 10 μg/mL thioredoxin, 125 μM insulin and 2 mM ethylenediaminetetraacetic acid (EDTA) in 30 μL of 100 mM potassium phosphate buffer was added to each experimental well plate, while negative control wells lacked any thiol isomerase. Lead compounds were diluted in a 6 point dose curve and the turbidity of insulin aggregation was measured kinetically each minute for 75 minutes using a Spectramax M3 plate reader (Molecular Devices, Sunnyvale, Calif.) Specificity assay utilized the insulin turbidity assay as well.
# ERp57 = biological target: T2, ERp57 (Homo sapiens, UniProt P30101); test: Insulin-based turbidometric assay of thiol isomerase inhibitory activity (ERp57); assay type: biochemical; settings: insulin turbidity assay, 6 point dose curve
# T2 construct: purchased AbCam (Cambridge Mass.)
# T2 sequence (P30101 25-505): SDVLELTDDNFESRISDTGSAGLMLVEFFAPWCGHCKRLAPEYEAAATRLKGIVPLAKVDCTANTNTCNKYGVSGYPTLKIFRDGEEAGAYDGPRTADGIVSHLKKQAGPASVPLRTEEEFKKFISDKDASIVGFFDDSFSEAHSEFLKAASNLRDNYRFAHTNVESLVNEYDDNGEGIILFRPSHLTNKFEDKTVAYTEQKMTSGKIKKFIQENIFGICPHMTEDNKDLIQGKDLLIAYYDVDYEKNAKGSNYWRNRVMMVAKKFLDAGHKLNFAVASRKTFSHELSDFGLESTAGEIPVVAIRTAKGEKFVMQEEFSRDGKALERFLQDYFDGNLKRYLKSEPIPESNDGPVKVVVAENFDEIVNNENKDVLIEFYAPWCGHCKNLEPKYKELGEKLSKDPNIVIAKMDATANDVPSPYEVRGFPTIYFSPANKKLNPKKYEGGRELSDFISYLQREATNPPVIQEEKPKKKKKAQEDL
# human washed platelets = test: Collagen stimulated platelet aggregation; assay type: cell-based; settings: collagen 1 μg/mL, 3 minutes
# Procedure: Human Platelet Preparation: 50 mL of blood was drawn from drug free, consenting individuals, into a syringe containing 5 mL sodium citrate (4% w/v) and 7.5 mL warmed ACD (85 mM sodium citrate, 71 mM citric acid and 110 mM glucose). Blood was centrifuged at 102 g for 20 minutes to obtain platelet-rich plasma (PRP), which was then decanted and 104 prostacyclin (PGI2 125 μg/mL, solubilized in ethanol) added. Platelets were pelleted by centrifugation at 1413 g for 10 minutes, platelet poor plasma was discarded and the pellet resuspended in 25 mL Tyrode's-HEPES buffer (134 mM NaCl, 2.9 mM KCl, 0.34 mM Na2HPO4, 12 mM NaHCO3, 20 mM HEPES, 1 mM MgCl2 and 5 mM glucose pH 7.3), 3 mL of ACD and 10 μL PGI2 were added and then following centrifugation at 1413 g for 10 minutes, the platelet pellet was re-suspended to the appropriate cell density using Tyrode's buffer. Platelets were rested for 30 minutes at 30° C. to allow platelet responses to recover.
# Platelet Aggregation: 445 μL of washed platelets at (4×10^8 cells/mL) were incubated for 5 minutes with vehicle (0.1% (v/v) DMSO) or 54 zafirlukast or montelukast. 50 μL of collagen 1 μg/mL (final), was added and light transmission monitored for 3 minutes at 37° C. with constant stirring (1200 rpm) using an aggregometer (Chronolog, USA).
# Statistical analyses: All raw data was analyzed by 1-way ANOVA and where appropriate normalized to vehicle. GraphPad Prism was used to perform statistical analysis by ANOVA or students T test. The level of significance of p values is as follows, *p<0.05,**p<0.01, ***p<0.005. Data presented are mean+/−standard error of the mean.
# Zafirlukast inhibits platelet aggregation: Human washed platelets (4×10^8 cells/mL) were pre-treated with 0.1 μM-10 μM zafirlukast or vehicle. Platelets were stimulated with collagen 1 μg/mL and allowed to aggregate for 3 minutes. Aggregation traces representative of the response were obtained and dose responses compared.
# [1] = system: EGFR activation and downstream signaling (STAT3 phosphorylation); test: Western blot of EGFR signaling in HCT116 cells; assay type: cell-based, human; settings: 24 hours
# Procedure: HCT116 (human colon cancer) cells were incubated with drug for 24 hours and total cellular extracts prepared. Protein levels were normalized, protein loaded on SDS-polyacrylamide gels and then electrophoresed before transferring to a PVDF membrane. The membranes were probed with primary antibodies of interest, followed by secondary antibodies conjugated with horseradish peroxidase.
# T1 sequence (P07237 18-508): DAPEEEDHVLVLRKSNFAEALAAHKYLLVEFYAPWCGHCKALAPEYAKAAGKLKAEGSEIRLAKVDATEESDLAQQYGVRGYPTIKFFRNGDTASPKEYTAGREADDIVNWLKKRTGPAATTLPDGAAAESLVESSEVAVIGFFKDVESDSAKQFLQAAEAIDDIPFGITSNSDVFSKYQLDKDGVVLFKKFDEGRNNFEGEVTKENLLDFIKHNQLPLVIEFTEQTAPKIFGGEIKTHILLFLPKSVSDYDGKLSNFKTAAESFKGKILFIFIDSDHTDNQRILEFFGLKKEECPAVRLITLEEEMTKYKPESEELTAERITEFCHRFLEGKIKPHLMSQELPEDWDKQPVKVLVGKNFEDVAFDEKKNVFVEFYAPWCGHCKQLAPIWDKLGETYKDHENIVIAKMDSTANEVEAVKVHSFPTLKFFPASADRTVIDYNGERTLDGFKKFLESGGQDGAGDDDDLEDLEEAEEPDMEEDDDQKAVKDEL
compound,measurement,setting,value
"COc1cc(C(=O)NS(=O)(=O)c2ccccc2C)ccc1Cc1cn(C)c2ccc(NC(=O)OC3CCCC3)cc12 [zafirlukast, 4-(5-cyclopentyloxycarbonylamino-1-methylindol-3-ylmethyl)-3-methoxy-N-o-tolylsulfonylbenzamide]","bleeding time (time to cessation of bleeding), in words",Tail bleeding assay,no change in bleeding time
same,platelet spreading upon collagen (in words),platelets,inhibit
same,inhibitory range on PDI,PDI,30 to 300 µM
same,inhibitory range on ERp57,ERp57,30 to 300 µM
same,inhibition of platelet aggregation (in words),human washed platelets; 0.1 μM,did not significantly inhibit
same,inhibition of platelet aggregation (in words),human washed platelets; 0.3 μM,did not significantly inhibit
same,"platelet aggregation, normalized to vehicle",human washed platelets; 0.6 μM,54.8%
same,"platelet aggregation, normalized to vehicle",human washed platelets; 1.25 μM,54.9%
same,"platelet aggregation, normalized to vehicle",human washed platelets; 2.5 μM,40.00%
same,"platelet aggregation, normalized to vehicle",human washed platelets; 5 μM,22.47%
same,"platelet aggregation, normalized to vehicle",human washed platelets; 10 μM,18.1%
same,inhibition at 0.6 µM,"human washed platelets; Homo sapiens, Platelet, 0.05 h, 0.6 μM",45%
same,inhibition at 1.25 µM,"human washed platelets; Homo sapiens, Platelet, 0.05 h, 1.25 μM",45%
same,inhibition at 2.5 µM,"human washed platelets; Homo sapiens, Platelet, 0.05 h, 2.5 μM",60%
same,inhibition at 5 µM,"human washed platelets; Homo sapiens, Platelet, 0.05 h, 5 μM",77.5%
same,inhibition at 10 µM,"human washed platelets; Homo sapiens, Platelet, 0.05 h, 10 μM",81.9%
same,"inhibition of EGFR activation and downstream signaling (STAT3 phosphorylation), in words",[1],almost complete inhibition
